Columns and labels:
Experiment in all cases: relative viability (nuclei count vs DMSO), 5 days (fraction); higher = more cells survive
[1] = compound: C1=CC2=NC=CN=C2C=C1/C=C/3\C(=O)NC(=O)S3 + CC1(C)CCC(c2ccc(Cl)cc2)=C(CN2CCN(c3ccc(C(=O)NS(=O)(=O)c4ccc(N[C@H](CCN5CCOCC5)CSc5ccccc5)c(S(=O)(=O)C(F)(F)F)c4)cc3)CC2)C1 [Navitoclax] (partner 0.5 µM)
Method in brief: (§1)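 Medians of duplicate plates are given as relative viability. That measure is the nuclei count in treated wells divided by the count in vehicle wells. Counts were taken on 4× images of lung cancer cell lines in 1536-well plates, 5 days after pin-tool dosing the day after seeding with one drug alone or a fixed anchor-drug dose plus five library-drug doses (not always all listed) in √10 steps.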

[2] = compound: C1=CC2=NC=CN=C2C=C1/C=C/3\C(=O)NC(=O)S3 + CS(=O)(=O)CCNCc1ccc(-c2ccc3ncnc(Nc4ccc(OCc5cccc(F)c5)c(Cl)c4)c3c2)o1 [Lapatinib] (partner 2 µM)
Method in brief: as §1

BGJ398 + Luminespib = compound: CCN1CCN(c2ccc(Nc3cc(N(C)C(=O)Nc4c(Cl)c(OC)cc(OC)c4Cl)ncn3)cc2)CC1 [BGJ398] + CCNC(=O)c1noc(-c2cc(C(C)C)c(O)cc2O)c1-c1ccc(CN2CCOCC2)cc1 [Luminespib] (partner 0.01 µM)
Method in brief: as §1

BGJ398 + Dasatinib = compound: CCN1CCN(c2ccc(Nc3cc(N(C)C(=O)Nc4c(Cl)c(OC)cc(OC)c4Cl)ncn3)cc2)CC1 [BGJ398] + Cc1nc(Nc2ncc(C(=O)Nc3c(C)cccc3Cl)s2)cc(N2CCN(CCO)CC2)n1 [Dasatinib] (partner 0.075 µM)
Method in brief: as §1

Cell Line | relative viability ([1]; first compound 0.02 µM) | relative viability ([1]; first compound 0.06325 µM) | relative viability ([1]; first compound 0.2 µM) | relative viability ([1]; first compound 0.6325 µM) | relative viability ([1]; first compound 2 µM) | relative viability ([2]; first compound 0.02 µM) | relative viability ([2]; first compound 0.06325 µM) | relative viability ([2]; first compound 0.2 µM) | relative viability ([2]; first compound 0.6325 µM) | relative viability ([2]; first compound 2 µM) | relative viability (BGJ398 + Luminespib; first compound 0.01 µM) | relative viability (BGJ398 + Luminespib; first compound 0.03162 µM) | relative viability (BGJ398 + Luminespib; first compound 0.1 µM) | relative viability (BGJ398 + Luminespib; first compound 0.3162 µM) | relative viability (BGJ398 + Luminespib; first compound 1 µM) | relative viability (BGJ398 + Dasatinib; first compound 0.01 µM) | relative viability (BGJ398 + Dasatinib; first compound 0.03162 µM) | relative viability (BGJ398 + Dasatinib; first compound 0.1 µM) | relative viability (BGJ398 + Dasatinib; first compound 0.3162 µM) | relative viability (BGJ398 + Dasatinib; first compound 1 µM)
CAL-12T | 1.3 | 1.13 | 1.09 | 1.24 | 1.49 | 0.512 | 0.708 | 0.659 | 0.629 | 0.751 | 0.257 | 0.391 | 0.326 | 0.4 | 0.232 | 0.534 | 0.554 | 0.443 | 0.386 | 0.325
EKVX | 0.931 | 0.865 | 0.916 | 0.957 | 0.822 | 0.215 | 0.18 | 0.251 | 0.207 | 0.146 | 0.783 | 0.859 | 0.999 | 0.782 | 0.966 | 0.528 | – | 0.807 | 0.539 | 0.565
NCI-H1651 | 0.989 | 1.03 | 0.915 | 0.981 | 1.08 | 0.793 | 0.899 | 1.05 | 0.718 | 0.685 | 0.989 | 0.811 | 0.9 | 0.949 | 0.773 | 0.48 | 0.416 | 0.482 | 0.256 | 0.333
NCI-H1944 | 1.02 | 1.05 | 1.08 | 0.95 | 1.04 | 0.834 | 0.966 | 0.801 | 0.735 | 0.486 | 0.687 | 0.714 | 0.787 | 0.722 | 0.716 | 0.166 | 0.21 | 0.23 | 0.198 | 0.203
SW 1573 | 0.879 | 1.05 | 1.05 | 0.866 | 0.945 | 1.09 | 1.36 | 0.982 | 0.928 | 0.978 | 0.323 | 0.242 | 0.209 | 0.226 | 0.278 | 0.439 | 0.668 | 0.466 | 0.462 | 0.574
A-427 | 0.935 | 0.977 | 0.993 | 0.934 | 0.877 | 1.03 | 1.04 | 1.07 | 0.994 | 1.08 | 0.903 | 0.907 | 1 | 0.794 | 0.81 | 0.656 | 0.694 | 0.674 | 0.348 | 0.598
NCI-H2347 | 0.756 | 0.443 | 0.904 | 0.863 | 0.734 | 0.886 | 0.88 | 1 | 0.79 | 0.852 | 0.396 | 0.666 | 0.746 | 0.471 | 0.453 | 0.314 | 0.291 | 0.342 | 0.278 | 0.262
NCI-H1355 | 0.87 | 1.01 | 1.05 | 1.03 | 0.951 | 0.811 | 0.929 | 1.05 | 0.919 | 0.766 | 0.683 | 0.705 | 0.793 | 0.735 | 0.696 | 0.658 | 0.713 | 0.74 | 0.735 | 0.507

— the supplement of paper PMC10307832
